# According to article PMC10599993, “The PTPN2/PTPN1 inhibitor ABBV-CLS-484 unleashes potent anti-tumour immunity” (Nature, 2023):
# What was measured:
# Assay in all cases: biochemical
# CLK2 = CLK2 (Homo sapiens, UniProt P49760); design: Kinase selectivity panel, IC50 of AC484 (Supplementary Table 1)
# Plk3 = Plk3 (Homo sapiens, UniProt Q9H4B4); design: Kinase selectivity panel, IC50 of AC484 (Supplementary Table 1)
# TEC = TEC (Homo sapiens, UniProt P42680); design: Kinase selectivity panel, IC50 of AC484 (Supplementary Table 1)
# MAP4K1 = MAP4K1 (Homo sapiens, UniProt Q92918); design: Kinase selectivity panel, IC50 of AC484 (Supplementary Table 1)
# Chain of MAP4K1 (Q92918 whole entry): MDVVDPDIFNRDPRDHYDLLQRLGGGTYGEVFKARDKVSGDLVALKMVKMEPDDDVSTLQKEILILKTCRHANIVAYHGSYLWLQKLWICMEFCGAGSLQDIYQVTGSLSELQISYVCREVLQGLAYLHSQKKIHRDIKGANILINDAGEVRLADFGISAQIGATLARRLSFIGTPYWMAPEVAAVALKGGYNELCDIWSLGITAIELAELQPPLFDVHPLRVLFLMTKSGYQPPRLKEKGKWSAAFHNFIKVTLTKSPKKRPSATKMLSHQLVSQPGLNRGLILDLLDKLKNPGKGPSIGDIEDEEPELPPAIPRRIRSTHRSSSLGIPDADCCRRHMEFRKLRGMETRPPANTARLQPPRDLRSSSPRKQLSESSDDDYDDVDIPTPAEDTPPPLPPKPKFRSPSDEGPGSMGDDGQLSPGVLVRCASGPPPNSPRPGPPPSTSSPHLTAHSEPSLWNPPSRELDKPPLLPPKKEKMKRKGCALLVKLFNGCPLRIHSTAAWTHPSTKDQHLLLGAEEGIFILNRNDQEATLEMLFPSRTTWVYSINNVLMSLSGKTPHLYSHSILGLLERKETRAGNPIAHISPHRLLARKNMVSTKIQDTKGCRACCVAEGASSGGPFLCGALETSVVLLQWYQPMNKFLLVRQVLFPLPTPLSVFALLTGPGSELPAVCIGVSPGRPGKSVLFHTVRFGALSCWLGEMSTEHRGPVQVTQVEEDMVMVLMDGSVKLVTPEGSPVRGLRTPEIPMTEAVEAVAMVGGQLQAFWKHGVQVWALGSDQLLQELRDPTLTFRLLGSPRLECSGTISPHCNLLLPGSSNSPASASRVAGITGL
# TBK1 = TBK1 (Homo sapiens, UniProt Q9UHD2); design: Kinase selectivity panel, IC50 of AC484 (Supplementary Table 1)
# Chain of TBK1 (Q9UHD2 whole entry): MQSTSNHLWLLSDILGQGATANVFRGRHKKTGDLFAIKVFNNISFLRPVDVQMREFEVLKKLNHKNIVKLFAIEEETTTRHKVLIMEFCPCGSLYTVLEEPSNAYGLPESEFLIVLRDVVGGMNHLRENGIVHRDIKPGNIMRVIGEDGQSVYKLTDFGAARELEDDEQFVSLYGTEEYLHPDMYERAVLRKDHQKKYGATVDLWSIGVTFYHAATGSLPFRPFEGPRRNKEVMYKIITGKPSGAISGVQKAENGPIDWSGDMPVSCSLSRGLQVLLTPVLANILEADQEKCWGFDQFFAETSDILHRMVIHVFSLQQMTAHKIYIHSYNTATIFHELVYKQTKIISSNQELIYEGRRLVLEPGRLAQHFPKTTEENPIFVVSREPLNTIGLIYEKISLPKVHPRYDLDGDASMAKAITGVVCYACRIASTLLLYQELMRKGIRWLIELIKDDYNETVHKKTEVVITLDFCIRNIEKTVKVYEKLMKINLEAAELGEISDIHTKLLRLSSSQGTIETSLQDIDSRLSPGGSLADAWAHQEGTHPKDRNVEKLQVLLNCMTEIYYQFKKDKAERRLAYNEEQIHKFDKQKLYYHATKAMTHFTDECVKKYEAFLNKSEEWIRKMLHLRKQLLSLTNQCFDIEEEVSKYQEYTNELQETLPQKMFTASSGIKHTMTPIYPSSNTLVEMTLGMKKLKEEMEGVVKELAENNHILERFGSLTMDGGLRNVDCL
# Akt1 = Akt1 (Homo sapiens, UniProt P31749); design: Kinase selectivity panel, IC50 of AC484 (Supplementary Table 1)
# ALK = ALK (Homo sapiens, UniProt Q9UM73); design: Kinase selectivity panel, IC50 of AC484 (Supplementary Table 1)
# IGF1R = IGF1R (Homo sapiens, UniProt P08069); design: Kinase selectivity panel, IC50 of AC484 (Supplementary Table 1)
# H2 = target: T1, H2 (Homo sapiens, UniProt P25021); design: Safety pharmacology off-target panel at Eurofins, radioligand binding with agonist or antagonist radioligand (Supplementary Table 2); conditions: antagonist radioligand
# T1 construct: gene HRH2
# Method: (§1) Wide-range phosphatase, kinase and preclinical safety pharmacology off-target activity screens were conducted at Eurofins (Extended Data Table 5 and Supplementary Tables 1 and 2). A small phosphatase panel was developed at AbbVie to assess IC50 values on select phosphatases. The following enzymes used in the phosphatase selectivity panel were purchased from Eurofins: PTPN1 (PTP1B; 14–621), PTPN2 (TC-PTP; 14–646), PTPN9 (14–592), SHP1 (14–591) and SHP2 (14–622). The catalytic activity of the phosphatase was monitored using the small-molecule substrate DiFMUP (ThermoFisher) in a fluorescence assay format. In brief, the phosphatase reactions were performed at room temperature in the following assay buffer: 50 mM HEPES, pH 7.2, 100 mM NaCl, 1 mM EDTA, 0.005% Tween-20 and 5 mM TCEP. Each phosphatase was incubated with increasing concentrations of AC484 for 5 min, after which the substrate DiFMUP was added and incubated at 25 °C for 30 min. The final concentration of the enzyme and substrate was maintained at 0.5 nM and 5 μM, respectively, in all the assays. The reaction was then quenched by the addition of a 100 μM solution of bpV(Phen) (Enzo Life Sciences). The fluorescence signal was monitored using an Envision microplate reader (Perkin-Elmer) using excitation and emission wavelengths of 340 nm and 450 nm, respectively. The dose–response curves for the inhibitors were analysed using normalized IC50 regression curve fitting with control-based normalization. Supplementary file 41586_2023_6575_MOESM4_ESM.xlsx: Supplementary Table 2 AC484 receptor selectivity screen.
# CGRP = target: T2, CGRP (Homo sapiens, UniProt O60894+Q16602); design: Safety pharmacology off-target panel at Eurofins, radioligand binding with agonist or antagonist radioligand (Supplementary Table 2); conditions: agonist radioligand
# T2 construct: gene RAMP1
# T2 sequence (O60894 whole entry): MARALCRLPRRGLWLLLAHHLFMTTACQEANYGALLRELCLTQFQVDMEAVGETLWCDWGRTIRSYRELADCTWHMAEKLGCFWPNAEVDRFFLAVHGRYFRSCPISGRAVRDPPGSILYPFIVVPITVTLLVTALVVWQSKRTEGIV
# T2 sequence (Q16602 whole entry): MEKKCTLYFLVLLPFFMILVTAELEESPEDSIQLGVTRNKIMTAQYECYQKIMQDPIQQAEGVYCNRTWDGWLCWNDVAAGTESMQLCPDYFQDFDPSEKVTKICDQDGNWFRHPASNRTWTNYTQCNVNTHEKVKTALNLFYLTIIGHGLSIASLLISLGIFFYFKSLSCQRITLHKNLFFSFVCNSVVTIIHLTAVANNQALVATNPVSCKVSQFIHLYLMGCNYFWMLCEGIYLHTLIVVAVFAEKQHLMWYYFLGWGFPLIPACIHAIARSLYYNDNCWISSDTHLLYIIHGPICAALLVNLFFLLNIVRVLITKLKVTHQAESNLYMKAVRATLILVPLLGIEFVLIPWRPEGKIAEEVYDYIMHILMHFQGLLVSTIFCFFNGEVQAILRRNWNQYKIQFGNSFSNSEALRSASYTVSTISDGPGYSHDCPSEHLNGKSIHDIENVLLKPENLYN
# Method: as §1
# 5-HT7 = target: T3, 5-HT7 (Homo sapiens, UniProt P34969); design: Safety pharmacology off-target panel at Eurofins, radioligand binding with agonist or antagonist radioligand (Supplementary Table 2); conditions: agonist radioligand
# T3 construct: gene HTR7
# T3 sequence (P34969 whole entry): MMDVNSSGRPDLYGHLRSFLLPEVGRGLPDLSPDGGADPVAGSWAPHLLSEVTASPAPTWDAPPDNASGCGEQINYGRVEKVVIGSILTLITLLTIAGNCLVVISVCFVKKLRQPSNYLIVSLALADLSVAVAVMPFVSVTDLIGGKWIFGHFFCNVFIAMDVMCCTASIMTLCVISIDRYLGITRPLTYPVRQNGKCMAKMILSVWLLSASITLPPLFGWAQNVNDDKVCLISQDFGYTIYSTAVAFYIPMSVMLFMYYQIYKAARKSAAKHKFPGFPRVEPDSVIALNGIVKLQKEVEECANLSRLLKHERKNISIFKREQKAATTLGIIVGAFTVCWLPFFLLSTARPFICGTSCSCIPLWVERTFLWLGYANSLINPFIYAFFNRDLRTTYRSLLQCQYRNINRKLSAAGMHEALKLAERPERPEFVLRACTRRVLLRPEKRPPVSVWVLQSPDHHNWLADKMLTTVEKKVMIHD
# Method: as §1
# M5 = target: T4, M5 (Homo sapiens, UniProt P08912); design: Safety pharmacology off-target panel at Eurofins, radioligand binding with agonist or antagonist radioligand (Supplementary Table 2); conditions: antagonist radioligand
# T4 construct: gene CHRM5
# T4 sequence (P08912 whole entry): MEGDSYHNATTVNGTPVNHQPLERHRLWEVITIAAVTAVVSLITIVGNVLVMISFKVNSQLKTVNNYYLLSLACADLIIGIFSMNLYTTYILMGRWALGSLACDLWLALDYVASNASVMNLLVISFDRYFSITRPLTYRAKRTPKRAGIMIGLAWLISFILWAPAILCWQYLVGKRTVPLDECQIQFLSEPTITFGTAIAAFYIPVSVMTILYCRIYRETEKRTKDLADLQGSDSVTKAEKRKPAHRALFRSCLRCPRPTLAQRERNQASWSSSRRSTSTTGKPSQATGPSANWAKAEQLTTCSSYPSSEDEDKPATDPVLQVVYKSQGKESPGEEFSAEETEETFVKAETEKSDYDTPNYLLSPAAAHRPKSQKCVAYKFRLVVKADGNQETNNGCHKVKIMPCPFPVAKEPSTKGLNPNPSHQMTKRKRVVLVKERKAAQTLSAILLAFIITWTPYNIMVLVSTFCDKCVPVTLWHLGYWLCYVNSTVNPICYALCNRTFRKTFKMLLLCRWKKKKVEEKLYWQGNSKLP
# Method: as §1
# H1 = target: T5, H1 (Homo sapiens, UniProt P35367); design: Safety pharmacology off-target panel at Eurofins, radioligand binding with agonist or antagonist radioligand (Supplementary Table 2); conditions: antagonist radioligand
# T5 construct: gene HRH1
# Method: as §1
# 5-HT1A = target: T6, 5-HT1A (Homo sapiens, UniProt P08908); design: Safety pharmacology off-target panel at Eurofins, radioligand binding with agonist or antagonist radioligand (Supplementary Table 2); conditions: agonist radioligand
# T6 construct: gene HTR1A
# Method: as §1
# EP2 = target: T7, EP2 (Homo sapiens, UniProt P43116); design: Safety pharmacology off-target panel at Eurofins, radioligand binding with agonist or antagonist radioligand (Supplementary Table 2); conditions: agonist radioligand
# T7 construct: gene PTGER2
# T7 sequence (P43116 whole entry): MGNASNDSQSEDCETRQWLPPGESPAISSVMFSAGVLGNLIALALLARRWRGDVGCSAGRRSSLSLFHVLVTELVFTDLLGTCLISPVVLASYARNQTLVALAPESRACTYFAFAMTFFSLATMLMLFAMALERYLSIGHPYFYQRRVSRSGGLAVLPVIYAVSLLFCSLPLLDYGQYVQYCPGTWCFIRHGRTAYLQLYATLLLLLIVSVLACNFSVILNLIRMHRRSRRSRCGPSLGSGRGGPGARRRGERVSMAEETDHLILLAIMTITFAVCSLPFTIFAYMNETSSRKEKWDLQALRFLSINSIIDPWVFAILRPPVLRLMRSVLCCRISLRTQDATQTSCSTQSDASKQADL
# Method: as §1
# M2 = target: T8, M2 (Homo sapiens, UniProt P08172); design: Safety pharmacology off-target panel at Eurofins, radioligand binding with agonist or antagonist radioligand (Supplementary Table 2); conditions: antagonist radioligand
# T8 construct: gene CHRM2
# Method: as §1
# a1A (h) = target: T9, a1A (h) (Homo sapiens, UniProt P35348); design: Safety pharmacology off-target panel at Eurofins, radioligand binding with agonist or antagonist radioligand (Supplementary Table 2); conditions: antagonist radioligand
# T9 construct: gene ADRA1A
# T9 sequence (P35348 whole entry): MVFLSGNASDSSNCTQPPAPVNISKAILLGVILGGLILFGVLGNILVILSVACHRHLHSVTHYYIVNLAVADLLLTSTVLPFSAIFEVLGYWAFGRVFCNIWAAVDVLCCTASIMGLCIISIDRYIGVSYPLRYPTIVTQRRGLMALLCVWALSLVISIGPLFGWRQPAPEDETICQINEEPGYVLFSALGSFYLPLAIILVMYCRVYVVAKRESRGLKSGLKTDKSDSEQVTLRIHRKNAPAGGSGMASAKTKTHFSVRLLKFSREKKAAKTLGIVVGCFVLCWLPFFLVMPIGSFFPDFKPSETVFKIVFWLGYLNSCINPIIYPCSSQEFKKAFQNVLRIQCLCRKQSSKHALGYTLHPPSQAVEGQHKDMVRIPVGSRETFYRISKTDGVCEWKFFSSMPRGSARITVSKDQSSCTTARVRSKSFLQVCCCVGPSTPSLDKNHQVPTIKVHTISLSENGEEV
# Method: as §1
# NK1 = target: T10, NK1 (Homo sapiens, UniProt P25103); design: Safety pharmacology off-target panel at Eurofins, radioligand binding with agonist or antagonist radioligand (Supplementary Table 2); conditions: agonist radioligand
# T10 construct: gene TACR1
# T10 sequence (P25103 whole entry): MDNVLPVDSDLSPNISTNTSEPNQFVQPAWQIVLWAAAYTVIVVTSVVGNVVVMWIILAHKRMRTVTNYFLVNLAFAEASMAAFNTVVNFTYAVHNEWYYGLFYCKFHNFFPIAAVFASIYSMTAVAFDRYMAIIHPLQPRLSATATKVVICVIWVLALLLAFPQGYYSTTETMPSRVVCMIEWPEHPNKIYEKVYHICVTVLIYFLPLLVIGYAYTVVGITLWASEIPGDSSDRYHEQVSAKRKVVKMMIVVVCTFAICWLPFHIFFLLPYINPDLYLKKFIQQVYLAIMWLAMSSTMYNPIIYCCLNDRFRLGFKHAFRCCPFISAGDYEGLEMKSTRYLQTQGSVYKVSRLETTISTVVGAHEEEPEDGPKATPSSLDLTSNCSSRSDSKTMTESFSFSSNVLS
# Method: as §1
# AT2 (h) = target: T11, AT2 (h) (Homo sapiens, UniProt P50052); design: Safety pharmacology off-target panel at Eurofins, radioligand binding with agonist or antagonist radioligand (Supplementary Table 2); conditions: agonist radioligand
# T11 construct: gene AGTR2
# T11 sequence (P50052 whole entry): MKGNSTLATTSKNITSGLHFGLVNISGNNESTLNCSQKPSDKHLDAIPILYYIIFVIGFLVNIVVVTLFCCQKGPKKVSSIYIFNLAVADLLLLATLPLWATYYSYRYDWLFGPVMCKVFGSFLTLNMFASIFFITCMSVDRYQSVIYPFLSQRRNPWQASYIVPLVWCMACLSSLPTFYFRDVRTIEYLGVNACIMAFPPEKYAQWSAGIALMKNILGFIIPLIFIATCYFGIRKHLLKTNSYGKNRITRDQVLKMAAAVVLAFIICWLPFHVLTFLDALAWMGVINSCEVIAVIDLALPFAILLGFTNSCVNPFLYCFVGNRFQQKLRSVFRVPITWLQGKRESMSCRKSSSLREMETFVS
# Method: as §1
# ETA = target: T12, ETA (Homo sapiens, UniProt P25101); design: Safety pharmacology off-target panel at Eurofins, radioligand binding with agonist or antagonist radioligand (Supplementary Table 2); conditions: agonist radioligand
# T12 construct: gene EDNRA
# Method: as §1
compound,measurement,setting,value
"CC(C)CCN[C@@H]1CCc2cc(O)c(N3CC(=O)NS3(=O)=O)c(F)c2C1 [AC484, ABBV-CLS-484]",IC50,CLK2,> 10 µM
same,IC50,Plk3,> 10 µM
same,IC50,TEC,> 10 µM
same,IC50,MAP4K1,> 10 µM
same,IC50,TBK1,> 10 µM
same,IC50,Akt1,> 10 µM
same,IC50,ALK,> 10 µM
same,IC50,IGF1R,> 10 µM
same,AC50,H2,> 0.01 mM
same,AC50,CGRP,> 0.01 mM
same,AC50,5-HT7,> 0.01 mM
same,AC50,M5,> 0.01 mM
same,AC50,H1,> 0.01 mM
same,AC50,5-HT1A,> 0.01 mM
same,AC50,EP2,> 0.01 mM
same,AC50,M2,> 0.01 mM
same,AC50,a1A (h),> 0.01 mM
same,AC50,NK1,> 0.01 mM
same,AC50,AT2 (h),> 0.01 mM
same,AC50,ETA,> 0.01 mM
